# Species on record: Rattus norvegicus
# Assay: DrugMatrix - Regimen: Daily Repeat
# Assay type: toxicity, organism-based, Sprague-Dawley
# Set-up: regimen Daily Repeat, gender Male, age 6-8 weeks
# Details: in vivo, po, route oral GAVAGE, vehicle .5 % CMC; for ABSOLUTE BASOPHIL / ABSOLUTE EOSINOPHIL / ABSOLUTE LYMPHOCYTE / ABSOLUTE MONOCYTE / ABSOLUTE SEGMENTED NEUTROPHIL / BASOPHIL / EOSINOPHIL / ERYTHROCYTE COUNT / HEMATOCRIT / HEMOGLOBIN / LEUKOCYTE COUNT / LYMPHOCYTE / MEAN CORPUSCULAR HEMOGLOBIN / MEAN CORPUSCULAR HEMOGLOBIN CONCENTRATION / MEAN CORPUSCULAR VOLUME / MONOCYTE / NEUTROPHIL / NUCLEATED RED BLOOD CELLS / PLATELET COUNT: tissue Blood; for ALANINE AMINOTRANSFERASE / ALBUMIN / ALKALINE PHOSPHATASE / ASPARTATE AMINOTRANSFERASE / BLOOD UREA NITROGEN / CARBON DIOXIDE / CHLORIDE / CHOLESTEROL / CREATINE PHOSPHOKINASE / CREATININE / GLUCOSE / LACTATE DEHYDROGENASE / LIPASE / PHOSPHORUS / POTASSIUM / SODIUM / TOTAL BILIRUBIN / TOTAL PROTEIN / URIC ACID: tissue Plasma
# [1] = 0 mg/kg, 72 h, dose level Control, time 3 day
# [2] = 0 mg/kg, 120 h, dose level Control, time 5 day
# [3] = 50 mg/kg, 72 h, dose level Low, time 3 day
smiles,measurement,setting,value
CC(=O)O[C@]1(C(C)=O)CC[C@H]2[C@@H]3C=C(Cl)C4=CC(=O)[C@@H]5C[C@@H]5[C@]4(C)[C@H]3CC[C@@]21C [CYPROTERONE ACETATE],ABSOLUTE BASOPHIL,[1],0 CELLS/uL
same,ABSOLUTE EOSINOPHIL,[1],0 CELLS/uL
same,ABSOLUTE LYMPHOCYTE,[1],12191.17 CELLS/uL
same,ABSOLUTE MONOCYTE,[1],183.17 CELLS/uL
same,ABSOLUTE SEGMENTED NEUTROPHIL,[1],1192.33 CELLS/uL
same,BASOPHIL,[1],0%
same,EOSINOPHIL,[1],0%
same,ERYTHROCYTE COUNT,[1],5.51 x10E6/uL
same,HEMATOCRIT,[1],35.45%
same,HEMOGLOBIN,[1],13.82 G/DL
same,LEUKOCYTE COUNT,[1],13.57 x10E3/uL
same,LYMPHOCYTE,[1],89.83%
same,MEAN CORPUSCULAR HEMOGLOBIN,[1],25.1 pg
same,MEAN CORPUSCULAR HEMOGLOBIN CONCENTRATION,[1],38.98 G/DL
same,MEAN CORPUSCULAR VOLUME,[1],64.42 fL
same,MONOCYTE,[1],1.33%
same,NEUTROPHIL,[1],8.83%
same,NUCLEATED RED BLOOD CELLS,[1],0 /100WBC
same,PLATELET COUNT,[1],1118.17 x10E3/uL
same,ALANINE AMINOTRANSFERASE,[1],55 u/L
same,ALBUMIN,[1],4.15 G/DL
same,ALKALINE PHOSPHATASE,[1],449.5 u/L
same,ASPARTATE AMINOTRANSFERASE,[1],112.83 u/L
same,BLOOD UREA NITROGEN,[1],17.33 mg/dL
same,CARBON DIOXIDE,[1],29.5 mmol/L
same,CHLORIDE,[1],101 MEQ/L
same,CHOLESTEROL,[1],70 mg/dL
same,CREATINE PHOSPHOKINASE,[1],1325.83 u/L
same,CREATININE,[1],0.18 mg/dL
same,GLUCOSE,[1],171.5 mg/dL
same,LACTATE DEHYDROGENASE,[1],386 u/L
same,LIPASE,[1],10 u/L
same,PHOSPHORUS,[1],11.57 mg/dL
same,POTASSIUM,[1],6.21 MEQ/L
same,SODIUM,[1],141.65 MEQ/L
same,TOTAL BILIRUBIN,[1],0.15 mg/dL
same,TOTAL PROTEIN,[1],5.75 G/DL
same,URIC ACID,[1],1.28 mg/dL
same,ABSOLUTE BASOPHIL,[2],0 CELLS/uL
same,ABSOLUTE EOSINOPHIL,[2],138.17 CELLS/uL
same,ABSOLUTE LYMPHOCYTE,[2],13283.17 CELLS/uL
same,ABSOLUTE MONOCYTE,[2],303.83 CELLS/uL
same,ABSOLUTE SEGMENTED NEUTROPHIL,[2],1308.17 CELLS/uL
same,BASOPHIL,[2],0%
same,EOSINOPHIL,[2],1%
same,ERYTHROCYTE COUNT,[2],5.32 x10E6/uL
same,HEMATOCRIT,[2],33.8%
same,HEMOGLOBIN,[2],13.63 G/DL
same,LEUKOCYTE COUNT,[2],15.03 x10E3/uL
same,LYMPHOCYTE,[2],88.33%
same,MEAN CORPUSCULAR HEMOGLOBIN,[2],25.68 pg
same,MEAN CORPUSCULAR HEMOGLOBIN CONCENTRATION,[2],40.35 G/DL
same,MEAN CORPUSCULAR VOLUME,[2],63.67 fL
same,MONOCYTE,[2],1.83%
same,NEUTROPHIL,[2],8.83%
same,NUCLEATED RED BLOOD CELLS,[2],0 /100WBC
same,PLATELET COUNT,[2],1097.5 x10E3/uL
same,ALANINE AMINOTRANSFERASE,[2],54.5 u/L
same,ALBUMIN,[2],4.27 G/DL
same,ALKALINE PHOSPHATASE,[2],337 u/L
same,ASPARTATE AMINOTRANSFERASE,[2],94.67 u/L
same,BLOOD UREA NITROGEN,[2],17 mg/dL
same,CARBON DIOXIDE,[2],28.33 mmol/L
same,CHLORIDE,[2],101.5 MEQ/L
same,CHOLESTEROL,[2],71.33 mg/dL
same,CREATINE PHOSPHOKINASE,[2],628.17 u/L
same,CREATININE,[2],0.19 mg/dL
same,GLUCOSE,[2],177.83 mg/dL
same,LACTATE DEHYDROGENASE,[2],500.5 u/L
same,LIPASE,[2],9.5 u/L
same,PHOSPHORUS,[2],12.3 mg/dL
same,POTASSIUM,[2],5.63 MEQ/L
same,SODIUM,[2],143.03 MEQ/L
same,TOTAL BILIRUBIN,[2],0.2 mg/dL
same,TOTAL PROTEIN,[2],6.02 G/DL
same,URIC ACID,[2],1.5 mg/dL
same,ABSOLUTE BASOPHIL,[3],0 CELLS/uL
same,ABSOLUTE EOSINOPHIL,[3],48.33 CELLS/uL
same,ABSOLUTE LYMPHOCYTE,[3],14035.67 CELLS/uL
same,ABSOLUTE MONOCYTE,[3],48.33 CELLS/uL
same,ABSOLUTE SEGMENTED NEUTROPHIL,[3],1667.67 CELLS/uL
same,BASOPHIL,[3],0%
same,EOSINOPHIL,[3],0.33%
same,ERYTHROCYTE COUNT,[3],5.31 x10E6/uL
same,HEMATOCRIT,[3],35.1%
same,HEMOGLOBIN,[3],13.77 G/DL
same,LEUKOCYTE COUNT,[3],15.8 x10E3/uL
same,LYMPHOCYTE,[3],88.67%
same,MEAN CORPUSCULAR HEMOGLOBIN,[3],25.93 pg
same,MEAN CORPUSCULAR HEMOGLOBIN CONCENTRATION,[3],39.23 G/DL
same,MEAN CORPUSCULAR VOLUME,[3],66.13 fL
same,MONOCYTE,[3],0.33%
same,NEUTROPHIL,[3],10.67%
same,NUCLEATED RED BLOOD CELLS,[3],0 /100WBC
same,PLATELET COUNT,[3],1211 x10E3/uL
same,ALANINE AMINOTRANSFERASE,[3],71.67 u/L
same,ALBUMIN,[3],4.43 G/DL
same,ALKALINE PHOSPHATASE,[3],396.67 u/L
same,ASPARTATE AMINOTRANSFERASE,[3],84.67 u/L
same,BLOOD UREA NITROGEN,[3],21.67 mg/dL
same,CARBON DIOXIDE,[3],28 mmol/L
same,CHLORIDE,[3],100.67 MEQ/L
same,CHOLESTEROL,[3],88.33 mg/dL
same,CREATINE PHOSPHOKINASE,[3],202.33 u/L
same,CREATININE,[3],0.15 mg/dL
same,GLUCOSE,[3],155.67 mg/dL
same,LACTATE DEHYDROGENASE,[3],202 u/L
same,LIPASE,[3],10.67 u/L
same,PHOSPHORUS,[3],11.13 mg/dL
same,POTASSIUM,[3],6.55 MEQ/L
same,SODIUM,[3],141.9 MEQ/L
same,TOTAL BILIRUBIN,[3],0.13 mg/dL
same,TOTAL PROTEIN,[3],6.27 G/DL
same,URIC ACID,[3],1.47 mg/dL

# From ChEMBL document CHEMBL3885881, “DrugMatrix”
